In ChEMBL document CHEMBL1201862, “PubChem BioAssay data set” (2004):
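48-hour exposure; five concentrations; linearly interpolated endpoints. Abbreviation: GI50, concentration required for 50% inhibition of growth.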 The source made the active and inactive calls. No stated cut-off is given here; in the data, active = GI50 up to about 1.1 µM and inactive = higher.

What was measured:
Test in all cases: NCI tumour cell line growth inhibition, 48 h
Malme-3M = tested on: Malme-3M
HCT-116 = tested on: HCT-116
HT-29 = tested on: HT-29
SK-MEL-28 = tested on: SK-MEL-28
HOP-92 = tested on: HOP-92
HCC 2998 = tested on: HCC 2998
HOP-62 = tested on: HOP-62
OVCAR-5 = tested on: OVCAR-5
RPMI-8226 = tested on: RPMI-8226
MDA-MB-231 = tested on: MDA-MB-231
OVCAR-3 = tested on: OVCAR-3
IGROV-1 = tested on: IGROV-1
M14 = tested on: M14
BT-549 = tested on: BT-549
SW-620 = tested on: SW-620
RXF 393 = tested on: RXF 393
SN12C = tested on: SN12C
HL-60 = tested on: HL-60
KM12 = tested on: KM12
PC-3 = tested on: PC-3
K562 = tested on: K562
OVCAR-4 = tested on: OVCAR-4
U-251 = tested on: U-251
UO-31 = tested on: UO-31
EKVX = tested on: EKVX
SK-OV-3 = tested on: SK-OV-3
SNB-19 = tested on: SNB-19
HCT-15 = tested on: HCT-15
UACC-62 = tested on: UACC-62
SR = tested on: SR
A549 = tested on: A549
NCI/ADR-RES = tested on: NCI/ADR-RES
COLO 205 = tested on: COLO 205
UACC-257 = tested on: UACC-257
MOLT-4 = tested on: MOLT-4
T47D = tested on: T47D
SK-MEL-5 = tested on: SK-MEL-5
Hs-578T = tested on: Hs-578T
MDA-N = tested on: MDA-N
NCI-H226 = tested on: NCI-H226
SF-268 = tested on: SF-268
ACHN = tested on: ACHN
SF-539 = tested on: SF-539
NCI-H522 = tested on: NCI-H522
MCF7 = tested on: MCF7
TK-10 = tested on: TK-10
SF-295 = tested on: SF-295
NCI-H460 = tested on: NCI-H460
A498 = tested on: A498
MDA-MB-435 = tested on: MDA-MB-435
OVCAR-8 = tested on: OVCAR-8
CAKI-1 = tested on: CAKI-1
786-0 = tested on: 786-0
SNB-75 = tested on: SNB-75
LOX IMVI = tested on: LOX IMVI
CCRF-CEM = tested on: CCRF-CEM
DU-145 = tested on: DU-145
NCI-H23 = tested on: NCI-H23
SK-MEL-2 = tested on: SK-MEL-2

## COC1(OC)C=CC(=O)C=C1
Malme-3M
  GI50: < 0.01 µM (active)
HCT-116
  GI50: 1.3 µM (inactive)
HT-29
  GI50: 3.11 µM (inactive)
SK-MEL-28
  GI50: 1.85 µM (inactive)
HOP-92
  GI50: 4.43 µM (inactive)
HCC 2998
  GI50: 3.68 µM (inactive)
HOP-62
  GI50: 10.6 µM (inactive)
OVCAR-5
  GI50: 10.4 µM (inactive)
RPMI-8226
  GI50: 2.74 µM (inactive)
MDA-MB-231
  GI50: 2.9 µM (inactive)
OVCAR-3
  GI50: 4.2 µM (inactive)
IGROV-1
  GI50: 1.72 µM (inactive)
M14
  GI50: 3.3 µM (inactive)
BT-549
  GI50: 3.55 µM (inactive)
SW-620
  GI50: 1.45 µM (inactive)
RXF 393
  GI50: 0.701 µM (active)
SN12C
  GI50: 7.48 µM (inactive)
HL-60
  GI50: 3.15 µM (inactive)
KM12
  GI50: 7.52 µM (inactive)
PC-3
  GI50: 3.27 µM (inactive)
K562
  GI50: 2.2 µM (inactive)
OVCAR-4
  GI50: 3.05 µM (inactive)
U-251
  GI50: 1.78 µM (inactive)
UO-31
  GI50: 1.89 µM (inactive)
EKVX
  GI50: 6.78 µM (inactive)
SK-OV-3
  GI50: 13 µM (inactive)
SNB-19
  GI50: 15.7 µM (inactive)
HCT-15
  GI50: 4.17 µM
UACC-62
  GI50: 1.82 µM (inactive)
SR
  GI50: 0.843 µM (active)
A549
  GI50: 5.85 µM (inactive)
NCI/ADR-RES
  GI50: 4.2 µM (inactive)
COLO 205
  GI50: 7.69 µM (inactive)
UACC-257
  GI50: 2.4 µM (inactive)
MOLT-4
  GI50: 2.33 µM (inactive)
T47D
  GI50: 3.22 µM (inactive)
SK-MEL-5
  GI50: 2.8 µM (inactive)
Hs-578T
  GI50: 9.84 µM (inactive)
MDA-N
  GI50: 7.41 µM (inactive)
NCI-H226
  GI50: 2.61 µM (inactive)
SF-268
  GI50: 4.09 µM (inactive)
ACHN
  GI50: 2.54 µM (inactive)
SF-539
  GI50: 1.74 µM (inactive)
NCI-H522
  GI50: 0.149 µM (active)
MCF7
  GI50: 1.3 µM (inactive)
TK-10
  GI50: 2.69 µM (inactive)
SF-295
  GI50: 11 µM (inactive)
NCI-H460
  GI50: 6.61 µM (inactive)
A498
  GI50: 32.6 µM (inactive)
MDA-MB-435
  GI50: 3.31 µM (inactive)
OVCAR-8
  GI50: 1.83 µM (inactive)
CAKI-1
  GI50: 3.61 µM (inactive)
786-0
  GI50: 1.9 µM (inactive)
SNB-75
  GI50: 11 µM (inactive)
LOX IMVI
  GI50: 0.667 µM (active)
CCRF-CEM
  GI50: 0.446 µM (active)
DU-145
  GI50: 3.48 µM (inactive)
NCI-H23
  GI50: 2.66 µM (inactive)
SK-MEL-2
  GI50: 6.81 µM (inactive)

## Cc1[nH]c(-c2ccccc2)c2nc(N(C)C)oc(=O)c12
Malme-3M
  GI50: > 100 µM (inactive)
HCT-116
  GI50: > 100 µM (inactive)
HT-29
  GI50: > 100 µM (inactive)
SK-MEL-28
  GI50: > 100 µM (inactive)
HOP-92
  GI50: > 100 µM (inactive)
HCC 2998
  GI50: > 100 µM (inactive)
HOP-62
  GI50: > 100 µM (inactive)
OVCAR-5
  GI50: > 100 µM (inactive)
RPMI-8226
  GI50: > 100 µM (inactive)
MDA-MB-231
  GI50: > 100 µM (inactive)
IGROV-1
  GI50: > 100 µM (inactive)
M14
  GI50: > 100 µM (inactive)
BT-549
  GI50: > 100 µM (inactive)
SW-620
  GI50: > 100 µM (inactive)
RXF 393
  GI50: > 100 µM (inactive)
SN12C
  GI50: > 100 µM (inactive)
HL-60
  GI50: > 100 µM (inactive)
KM12
  GI50: > 100 µM (inactive)
PC-3
  GI50: > 100 µM (inactive)
K562
  GI50: > 100 µM (inactive)
OVCAR-4
  GI50: > 100 µM (inactive)
U-251
  GI50: > 100 µM (inactive)
UO-31
  GI50: > 100 µM (inactive)
EKVX
  GI50: > 100 µM (inactive)
SK-OV-3
  GI50: > 100 µM (inactive)
SNB-19
  GI50: > 100 µM (inactive)
HCT-15
  GI50: > 100 µM
UACC-62
  GI50: > 100 µM (inactive)
SR
  GI50: > 100 µM (inactive)
A549
  GI50: > 100 µM (inactive)
NCI/ADR-RES
  GI50: > 100 µM (inactive)
COLO 205
  GI50: > 100 µM (inactive)
UACC-257
  GI50: > 100 µM (inactive)
MOLT-4
  GI50: > 100 µM (inactive)
T47D
  GI50: > 100 µM (inactive)
SK-MEL-5
  GI50: > 100 µM (inactive)
Hs-578T
  GI50: > 100 µM (inactive)
MDA-N
  GI50: > 100 µM (inactive)
NCI-H226
  GI50: > 100 µM (inactive)
SF-268
  GI50: > 100 µM (inactive)
ACHN
  GI50: > 100 µM (inactive)
SF-539
  GI50: > 100 µM (inactive)
NCI-H522
  GI50: > 100 µM (inactive)
MCF7
  GI50: > 100 µM (inactive)
TK-10
  GI50: > 100 µM (inactive)
SF-295
  GI50: > 100 µM (inactive)
NCI-H460
  GI50: > 100 µM (inactive)
A498
  GI50: > 100 µM (inactive)
MDA-MB-435
  GI50: > 100 µM (inactive)
OVCAR-8
  GI50: > 100 µM (inactive)
CAKI-1
  GI50: 0.212 µM (active)
786-0
  GI50: > 100 µM (inactive)
SNB-75
  GI50: > 100 µM (inactive)
LOX IMVI
  GI50: > 100 µM (inactive)
CCRF-CEM
  GI50: > 100 µM (inactive)
DU-145
  GI50: > 100 µM (inactive)
NCI-H23
  GI50: > 100 µM (inactive)
SK-MEL-2
  GI50: > 100 µM (inactive)
